Laboratory results reported in US11857537B2, “Use of prostacyclin antagonists for treating ocular surface nociception” (JENIVISION INC., priority 2016, dated 2024).
Entries after “also recorded” stand apart in the source; their conditions may differ.

What was measured:
[1] = system: ocular surface nociception induced by corneal scarification in Cynomolgus monkeys; experiment: Mild corneal abrasion (scarification) model of ocular discomfort, nictation (blinking) rate; format: in vivo, Cynomolgus monkey
Experimental: A prostanoid IP receptor antagonist (4,5-dihydro-N-[4-[[4-(1-methylethoxy)phenyl]methyl]phenyl]-1H-imadazol-2-amine RO-1138452, CAY 10441), at a dose of 0.3% w/v in an aqueous 1% polysorbate 80 in Tris-HCL (a standard ocular vehicle used in testing of ophthalmic drugs), was administered topically to the ocular surface of […] Cynomolgus monkeys. Cynomologus monkeys are the closest animal model for humans. A model that replicates an actual clinically encountered ocular condition, namely corneal abrasion, was employed.
As an animal model indicative of both ocular discomfort and pain, mild corneal scarification and measurement of the resultant increased blinking (nictation) rate was employed. The species chosen was the Cynomologous monkey and there are reasons for this selection. […] Increased rate of blinking (nictation) is recognized as a reliable end-point indicative of discomfort and pain and was, therefore, used in the studies described herein. There is a linear correlation between ocular surface sensory-evoked stimulation and blink rate in humans (Wu et al., 2014). Increased blinking frequency is associated with a diverse variety of conditions that elicit ocular discomfort and pain such as air borne noxious contaminants (Lang et al., 2008), acidic solutions (Collejo et al, 2015), dry eye conditions and wearing contact lenses (Wu et al., 2014). Thus, increased blinking rate is a universal indicator of ocular surface nociception resulting in discomfort and pain.
The drug formulation was administered post-scarification of the cornea, and at identical time points on two subsequent days. Ocular discomfort was monitored as the nictation (blinking) rate. Blinking is an established human behavioral response to corneal discomfort and irritation (Lang et al., 2008; Wu et al., 2014; Callejo et al., 2015). […]
A total of eight naïve Cynomolgus monkeys were used. […] The nictation rate (blinking rate) was measured to provide quantification of discomfort. […]

[2] = system: ocular pain; experiment: Patient case examples: ocular pain after topical ocular administration; format: in vivo, human; conditions: Example II: person, extreme ocular discomfort with pain; 0.3% w/v solution, then twice a day
Excerpt: A person was suffering from extreme ocular discomfort which was associated with pain. […] A person suffers a grade 2 chemical eye burn from an acidic substance. Despite being administered prednisolone acetate 1% every two hours, severe ocular pain persists. The physician will administer Formula 3 from Table I, three times a day. […] After 7-21 days, the patient experiences corneal/conjunctival epithelium and keratocytes proliferate. Collagen synthesis begins. A person suffers from aqueous tear deficient dry eye associated occasionally with moderate to severe sharp ocular pain.

CC(C)Oc1ccc(Cc2ccc(NC3=NCCN3)cc2)cc1 [4,5-dihydro-N-[4-[[4-(1-methylethoxy)phenyl]methyl]phenyl]-1H-imadazol-2-amine]
nictation rate in drug treated eyes compared with vehicle ([1]; 0.3% w/v topical once daily on Day 4 and Day 5 after corneal scarification on Day 3, n=4 per group, P<0.01 vs vehicle): statistically significantly lower
ocular surface nociception induced by scarification ([1]; 0.3% w/v topical, P≤0.01 non-paired t-test): significantly reduced
difference in blinking rate, control vs. treated group ([1]; two days after the surgery (Day 5-16:00)): minimal
ocular pain [2]: immediate reduction of ocular pain; also recorded: all pain is reduced and eventually disappears
